Data: patent US5663186A, “Treatment of atherosclerosis with angiotensin II receptor blocking imidazoles” (Merck & Co., Inc., priority 1995, dated 1997)

Legend:
Renal Hypertensives Rats = assay: Antihypertensive effects in renal hypertensive rats (left renal artery ligation); format: in vivo, rat
Procedure: This procedure increases blood pressure by increasing renin production with consequent elevation of AII levels. Compounds are administered orally at 100 mg/kg and/or intravenously via a cannula in the jugular vein at 10 mg/kg. Arterial blood pressure is continuously measured directly through a carotid artery cannula and recorded using a pressure transducer and a polygraph. Blood pressure levels after treatment are compared to pretreatment levels to determine the antihypertensive effects of the compounds (See Table 1).
Compound listed in Table 2 was tested in the same manner as described for Table 1, except that in the test for antihypertensive effects in renal hypertensive rats, the compounds were administered orally at 30 mg/kg and intravenously at 3 mg/kg.

[1] = test system: patients with mild to moderate hypertension; assay: Clinical study: total cholesterol; format: in vivo
Procedure: (§1) The total, HDL, LDL and VLDL cholesterol levels were measured using the procedures described below:
Cholesterol esters in the sample are hydrolyzed by cholesterol esterase to cholesterol and free fatty acids. The cholesterol produced in the reaction plus the free cholesterol present in the sample, are oxidized by cholesterol oxidase to form cholesten-3-one and hydrogen peroxide. Peroxidase catalyzes the hydrogen peroxide oxidation and 4-aminoantipyrine(4-AAP) and phenol with subsequent coupling to 3,4-dichlorophenol. The end product is a quinoneimine dye which is read at a primary wavelength of 520 nm. The color formation is proportional to the concentration of cholesterol present. This absorbance value is then compared to the absorbance by a known calibrator. The result is then printed out directly in mg/dL.

[2] = test system: patients with mild to moderate hypertension; assay: Clinical study: LDL cholesterol; format: in vivo
Procedure: as §1
The low density lipoprotein cholesterol is computed by subtracting from the cholesterol value determined above one-fifth of the triglycerides and the HDL cholesterol value determined above. This LDL computation is valid only if the triglyceride level is less than 400 mg/dL.

[3] = test system: patients with mild to moderate hypertension; assay: Clinical study: triglycerides; format: in vivo
Procedure: (§2) After six weeks the non-responders were titrated to a 100 mg oral dose administered once daily.

[4] = test system: patients with mild to moderate hypertension; assay: Clinical study: plasma renin activity; format: in vivo
Procedure: as §2

[5] = test system: patients with mild to moderate hypertension; assay: Clinical study: sitting diastolic blood pressure; format: in vivo; details: for Peak Sitting Diastolic Blood Pressure, Mean (on treatment) / Mean Change in Peak Sitting Diastolic Blood Pressure / Change in Peak Sitting Diastolic Blood Pressure, adj. mean: peak (6 hours postdose); for Trough Sitting Diastolic Blood Pressure, Mean (on treatment) / Mean Change in Trough Sitting Diastolic Blood Pressure / Change in Trough Sitting Diastolic Blood Pressure, adj. mean: trough (24 hours postdose)
Procedure: Sitting Diastolic Blood Pressure Results At Week 6 and 12
The changes from baseline blood pressure (primary=trough sitting diastolic blod pressure at weeks 6 and 12) were evaluated using a least squares analysis of the means based upon an analysis of covariance (covariate=baseline blood pressure)for a randomized block (block=investigator site) design. An "all-patients-treated" and a "per-protocol" analysis were performed. The study was designed to detect a 5 mmHg difference in mean change between treatments with 95% probability based upon a group size of 86 with an α of 0.05 (two-sided) and a standard deviation of 9 mmHg.

AT1 receptor subtype = details: cited from earlier work

For CCCCc1nc(Cl)c(CO)n1Cc1ccc(-c2ccccc2-c2nnn[nH]2)cc1.[K] [Losartan, 2-n-butyl-4-chloro-1-[(2'-(tetrazol-5-yl)-1,1'-biphenyl-4-yl)-methyl]-1H-imidazole-5-methanol potassium salt], the “Antihypertensive Effects in Renal Hypertensives Rats, Intravenous Activity” value (Renal Hypertensives Rats; intravenous, 10 mg/kg or less) was “+ (Significant decrease in blood pressure at 10 mg/kg or less)”, the “Antihypertensive Effects in Renal Hypertensives Rats, Oral Activity” value (Renal Hypertensives Rats; oral, 100 mg/kg or less) was “+ (Significant decrease in blood pressure at 100 mg/kg or less)” and the “TOTAL CHOLESTEROL, CHANGE MEAN” value ([1]; LOS 50, week 12, N 107, change from baseline 211.1) was -3.9 mg/dL. For the same compound, the “TOTAL CHOLESTEROL, TREATMENT MEAN” value ([1]; LOS 50, week 12, N 107, oral once daily) was 207.3 mg/dL, the “TOTAL CHOLESTEROL, TREATMENT MEAN” value ([1]; LOS 50/100, week 12, N 106) was 204.8 mg/dL and the “TOTAL CHOLESTEROL, CHANGE MEAN” value ([1]; LOS 50/100, week 12, N 106, change from baseline 212.6) was -7.9 mg/dL. The “LDL CHOLESTEROL, TREATMENT MEAN” value ([2]; LOS 50, week 12, N 102) was 123.5 mg/dL, the “LDL CHOLESTEROL, CHANGE MEAN” value ([2]; LOS 50, week 12, N 102, change from baseline 127.7) was -4.2 mg/dL and the “LDL CHOLESTEROL, TREATMENT MEAN” value ([2]; LOS 50/100, week 12, N 95) was 117.9 mg/dL. For the same compound, the “LDL CHOLESTEROL, CHANGE MEAN” value ([2]; LOS 50/100, week 12, N 95, change from baseline 126.3) was -8.4 mg/dL, the “TRIGLYCERIDES, TREATMENT MEAN” value ([3]; LOS 50, week 12, N 107) was 173.1 mg/dL and the “TRIGLYCERIDES, CHANGE MEAN” value ([3]; LOS 50, week 12, N 107, change from baseline 170.4) was 2.7 mg/dL. The “TRIGLYCERIDES, TREATMENT MEAN” value ([3]; LOS 50/100, week 12, N 106) was 187.8 mg/dL, the “TRIGLYCERIDES, CHANGE MEAN” value ([3]; LOS 50/100, week 12, N 106, change from baseline 174.4) was 13.4 mg/dL and the “PLASMA RENIN ACTIVITY, TREATMENT MEAN” value ([4]; LOS 50, week 12, N 99) was 2.889 ng/mL/h. For the same compound, the “PLASMA RENIN ACTIVITY, CHANGE MEAN” value ([4]; LOS 50, week 12, N 99, change from baseline 1.300) was 1.589 ng/mL/h, the “PLASMA RENIN ACTIVITY, TREATMENT MEAN” value ([4]; LOS 50/100, week 12, N 96) was 3.724 ng/mL/h and the “PLASMA RENIN ACTIVITY, CHANGE MEAN” value ([4]; LOS 50/100, week 12, N 96, change from baseline 1.473) was 2.251 ng/mL/h. The “Category I: Trough SDBP <90 mmHg, number of patients” value ([5]; 6 wk, 50 mg, of 125) was 37, the “Category I: Trough SDBP <90 mmHg, percent of patients” value ([5]; 6 wk, 50 mg, of 125) was 29.6% and the “Category II: Trough SDBP ≥90 mmHg, number of patients” value ([5]; 6 wk, 50 mg, of 125) was 20. The “Category II: Trough SDBP ≥90 mmHg, percent of patients” value ([5]; 6 wk, 50 mg, of 125) was 16.0%, the “Category III: Neither Category I or II, number of patients” value (“Category III … number of patients” below) ([5]; 6 wk, 50 mg, of 125) was 68 and the “Category III: Neither Category I or II, percent of patients” value (“Category III … percent of patients” for short) ([5]; 6 wk, 50 mg, of 125) was 54.4%. For the same compound, the “Category I: Trough SDBP <90 mmHg, number of patients” value ([5]; 6 wk, 50/100 mg, of 118) was 37, the “Category I: Trough SDBP <90 mmHg, percent of patients” value ([5]; 6 wk, 50/100 mg, of 118) was 31.3% and the “Category II: Trough SDBP ≥90 mmHg, number of patients” value ([5]; 6 wk, 50/100 mg, of 118) was 21. The “Category II: Trough SDBP ≥90 mmHg, percent of patients” value ([5]; 6 wk, 50/100 mg, of 118) was 17.7%, the “Category III … number of patients” value ([5]; 6 wk, 50/100 mg, of 118) was 60 and the “Category III … percent of patients” value ([5]; 6 wk, 50/100 mg, of 118) was 50.8%. For the same compound, the “Category I: Trough SDBP <90 mmHg, number of patients” value ([5]; 12 wk, 50 mg, of 125) was 40, the “Category I: Trough SDBP <90 mmHg, percent of patients” value ([5]; 12 wk, 50 mg, of 125) was 32.0% and the “Category II: Trough SDBP ≥90 mmHg, number of patients” value ([5]; 12 wk, 50 mg, of 125) was 18. For the same compound, the “Category II: Trough SDBP ≥90 mmHg, percent of patients” value ([5]; 12 wk, 50 mg, of 125) was 14.4%, the “Category III … number of patients” value ([5]; 12 wk, 50 mg, of 125) was 67 and the “Category III … percent of patients” value ([5]; 12 wk, 50 mg, of 125) was 53.6%. For the same compound, the “Category I: Trough SDBP <90 mmHg, number of patients” value ([5]; 12 wk, 50/100 mg, of 118) was 37, the “Category I: Trough SDBP <90 mmHg, percent of patients” value ([5]; 12 wk, 50/100 mg, of 118) was 31.3% and the “Category II: Trough SDBP ≥90 mmHg, number of patients” value ([5]; 12 wk, 50/100 mg, of 118) was 24. For the same compound, the “Category II: Trough SDBP ≥90 mmHg, percent of patients” value ([5]; 12 wk, 50/100 mg, of 118) was 20.3%, the “Category III … number of patients” value ([5]; 12 wk, 50/100 mg, of 118) was 57 and the “Category III … percent of patients” value ([5]; 12 wk, 50/100 mg, of 118) was 48.3%. The “Peak Sitting Diastolic Blood Pressure, Mean (on treatment)” value ([5]; 6 wk, 50 mg, N 118, all-patients-treated) was 90.2 mmHg, the “Mean Change in Peak Sitting Diastolic Blood Pressure” value ([5]; 6 wk, 50 mg, N 118, baseline 99.9) was -9.7 mmHg and the “Change in Peak Sitting Diastolic Blood Pressure, adj. mean” value ([5]; 6 wk, 50 mg, N 118, least squares) was -9.7 mmHg. The “Peak Sitting Diastolic Blood Pressure, Mean (on treatment)” value ([5]; 6 wk, 50/100 mg, N 111, all-patients-treated) was 90.3 mmHg, the “Mean Change in Peak Sitting Diastolic Blood Pressure” value ([5]; 6 wk, 50/100 mg, N 111, baseline 99.1) was -8.9 mmHg and the “Change in Peak Sitting Diastolic Blood Pressure, adj. mean” value ([5]; 6 wk, 50/100 mg, N 111, least squares) was -9.0 mmHg. For the same compound, the “Peak Sitting Diastolic Blood Pressure, Mean (on treatment)” value ([5]; 12 wk, 50 mg, N 121, all-patients-treated) was 90.3 mmHg, the “Mean Change in Peak Sitting Diastolic Blood Pressure” value ([5]; 12 wk, 50 mg, N 121, baseline 99.8) was -9.5 mmHg and the “Change in Peak Sitting Diastolic Blood Pressure, adj. mean” value ([5]; 12 wk, 50 mg, N 121, least squares) was -9.3 mmHg. The “Peak Sitting Diastolic Blood Pressure, Mean (on treatment)” value ([5]; 12 wk, 50/100 mg, N 113, all-patients-treated) was 89.1 mmHg, the “Mean Change in Peak Sitting Diastolic Blood Pressure” value ([5]; 12 wk, 50/100 mg, N 113, baseline 99.2) was -10.1 mmHg and the “Change in Peak Sitting Diastolic Blood Pressure, adj. mean” value ([5]; 12 wk, 50/100 mg, N 113, least squares) was -10.1 mmHg. For the same compound, the “Trough Sitting Diastolic Blood Pressure, Mean (on treatment)” value ([5]; 6 wk, 50 mg, N 125, all-patients-treated) was 95.3 mmHg, the “Mean Change in Trough Sitting Diastolic Blood Pressure” value ([5]; 6 wk, 50 mg, N 125, baseline 102.1) was -6.9 mmHg and the “Change in Trough Sitting Diastolic Blood Pressure, adj. mean” value ([5]; 6 wk, 50 mg, N 125, least squares) was -6.9 mmHg. For the same compound, the “Trough Sitting Diastolic Blood Pressure, Mean (on treatment)” value ([5]; 6 wk, 50/100 mg, N 118, all-patients-treated) was 94.3 mmHg, the “Mean Change in Trough Sitting Diastolic Blood Pressure” value ([5]; 6 wk, 50/100 mg, N 118, baseline 102.2) was -7.9 mmHg and the “Change in Trough Sitting Diastolic Blood Pressure, adj. mean” value ([5]; 6 wk, 50/100 mg, N 118, least squares) was -7.9 mmHg. The “Trough Sitting Diastolic Blood Pressure, Mean (on treatment)” value ([5]; 12 wk, 50 mg, N 125, all-patients-treated) was 94.2 mmHg, the “Mean Change in Trough Sitting Diastolic Blood Pressure” value ([5]; 12 wk, 50 mg, N 125, baseline 102.1) was -7.9 mmHg and the “Change in Trough Sitting Diastolic Blood Pressure, adj. mean” value ([5]; 12 wk, 50 mg, N 125, least squares) was -7.9 mmHg. For the same compound, the “Trough Sitting Diastolic Blood Pressure, Mean (on treatment)” value ([5]; 12 wk, 50/100 mg, N 118, all-patients-treated) was 93.6 mmHg, the “Mean Change in Trough Sitting Diastolic Blood Pressure” value ([5]; 12 wk, 50/100 mg, N 118, baseline 102.2) was -8.6 mmHg and the “Change in Trough Sitting Diastolic Blood Pressure, adj. mean” value ([5]; 12 wk, 50/100 mg, N 118, least squares) was -8.6 mmHg. For the same compound, the “AII antagonism, oral activity” value (AT1 receptor subtype) was “orally active A II antagonists”.
